Values quoted from earlier work, collected in paper PMC8287861 (Frontiers in Microbiology, 2021).
In brackets after ≈: the same amount, converted by molar mass.

Assays:
Set-up in all cases: method as in Lomovskaya et al. (2020b)
PAM4175 pUCP24 vector = conditions: ref Lomovskaya et al. (2020b)
PAM4819 CTX-M-2 = conditions: PAM4819, CTX-M-2, class A; ref Lomovskaya et al. (2020b)
PAM4743 CTX-M-15 = conditions: PAM4743, CTX-M-15, class A; ref Lomovskaya et al. (2020b)
PAM4820 CTX-M-25 = conditions: PAM4820, CTX-M-25, class A; ref Lomovskaya et al. (2020b)
PAM4886 GES-1 = conditions: PAM4886, GES-1, class A; ref Lomovskaya et al. (2020b)
PAM4840 OXY-6-2 = conditions: PAM4840, OXY-6-2, class A; ref Lomovskaya et al. (2020b)
PAM4842 PER-2 = conditions: PAM4842, PER-2, class A; ref Lomovskaya et al. (2020b)
PAM4907 PER-4 = conditions: PAM4907, PER-4, class A; ref Lomovskaya et al. (2020b)
PAM4912 VEB-3 = conditions: PAM4912, VEB-3, class A; ref Lomovskaya et al. (2020b)
PAM4135 KPC-2 = conditions: PAM4135, KPC-2, class A-CARB; ref Lomovskaya et al. (2020b)
PAM4864 SFC-1 = conditions: PAM4864, SFC-1, class A-CARB; ref Lomovskaya et al. (2020b)
PAM4744 SME-2 = conditions: PAM4744, SME-2, class A-CARB; ref Lomovskaya et al. (2020b)
PAM4186 CMY-2 = conditions: PAM4186, CMY-2, class C; ref Lomovskaya et al. (2020b)
PAM4792 OXA-2 = conditions: PAM4792, OXA-2, class D; ref Lomovskaya et al. (2020b)
PAM4790 OXA-10 = conditions: PAM4790, OXA-10, class D; ref Lomovskaya et al. (2020b)
PAM4875 OXA-23 = conditions: PAM4875, OXA-23, class D-CARB; ref Lomovskaya et al. (2020b)
PAM4876 OXA-72 = conditions: PAM4876, OXA-72, class D-CARB; ref Lomovskaya et al. (2020b)
PAM4877 OXA-58 = conditions: PAM4877, OXA-58, class D-CARB; ref Lomovskaya et al. (2020b)
PAM4917 NDM-7 = conditions: PAM4917, NDM-7, class B1; ref Lomovskaya et al. (2020b)
PAM4795 VIM-1 = conditions: PAM4795, VIM-1, class B1; ref Lomovskaya et al. (2020b)
PAM4887 IMP-1 = conditions: PAM4887, IMP-1, class B1; ref Lomovskaya et al. (2020b)
PAM4888 IMP-4 = conditions: PAM4888, IMP-4, class B1; ref Lomovskaya et al. (2020b)
PAM4196 IMP-13 = conditions: PAM4196, IMP-13, class B1; ref Lomovskaya et al. (2020b)
PAM4890 IMP-19 = conditions: PAM4890, IMP-19, class B1; ref Lomovskaya et al. (2020b)
PAM4889 IMP-26 = conditions: PAM4889, IMP-26, class B1; ref Lomovskaya et al. (2020b)
PAM4879 CcrA1 = conditions: PAM4879, CcrA1, class B1; ref Lomovskaya et al. (2020b)

Row | SMILES | MIC (PAM4175 pUCP24 vector) [µg/mL] | MIC (PAM4819 CTX-M-2) [µg/mL] | MIC (PAM4743 CTX-M-15) [µg/mL] | MIC (PAM4820 CTX-M-25) [µg/mL] | MIC (PAM4886 GES-1) [µg/mL] | MIC (PAM4840 OXY-6-2) [µg/mL] | MIC (PAM4842 PER-2) [µg/mL] | MIC (PAM4907 PER-4) [µg/mL] | MIC (PAM4912 VEB-3) [µg/mL] | MIC (PAM4135 KPC-2) [µg/mL] | MIC (PAM4864 SFC-1) [µg/mL] | MIC (PAM4744 SME-2) [µg/mL] | MIC (PAM4186 CMY-2) [µg/mL] | MIC (PAM4792 OXA-2) [µg/mL] | MIC (PAM4790 OXA-10) [µg/mL] | MIC (PAM4875 OXA-23) [µg/mL] | MIC (PAM4876 OXA-72) [µg/mL] | MIC (PAM4877 OXA-58) [µg/mL] | MIC (PAM4917 NDM-7) [µg/mL] | MIC (PAM4795 VIM-1) [µg/mL] | also measured
1 | CC(C)(O/N=C(\C(=O)N[C@@H]1C(=O)N2C(C(=O)[O-])=C(C[n+]3ccccc3)CS[C@H]12)c1csc(N)n1)C(=O)O [Ceftazidime, ceftazidime] | 0.25 (≈ 0.457 µM) | 1 (≈ 1.83 µM) | 32 (≈ 58.5 µM) | 8 (≈ 14.6 µM) | 64 (≈ 117 µM) | 0.5 (≈ 0.915 µM) | >64 | >64 | >64 | 16 (≈ 29.3 µM) | 2 (≈ 3.66 µM) | 0.5 (≈ 0.915 µM) | 16 (≈ 29.3 µM) | 8 (≈ 14.6 µM) | 0.25 (≈ 0.457 µM) | 0.25 (≈ 0.457 µM) | 0.25 (≈ 0.457 µM) | 0.25 (≈ 0.457 µM) | >64 | 64 (≈ 117 µM) | MIC (PAM4887 IMP-1): >64 µg/mL; MIC (PAM4888 IMP-4): >64 µg/mL; MIC (PAM4196 IMP-13): 64 µg/mL (≈ 117 µM); MIC (PAM4890 IMP-19): >64 µg/mL; MIC (PAM4889 IMP-26): >64 µg/mL; MIC (PAM4879 CcrA1): 4 µg/mL (≈ 7.32 µM)
2 | CCN1CCN(C(=O)N[C@@H](C(=O)N[C@@H]2C(=O)N3[C@@H]2SC(C)(C)[C@@H]3C(=O)O)c2ccccc2)C(=O)C1=O [Piperacillin, piperacillin] | 0.125 (≈ 0.242 µM) | 64 (≈ 124 µM) | >64 | >64 | 4 (≈ 7.73 µM) | >64 | 1 (≈ 1.93 µM) | 0.5 (≈ 0.966 µM) | 8 (≈ 15.5 µM) | >64 | >64 | 8 (≈ 15.5 µM) | 8 (≈ 15.5 µM) | 64 (≈ 124 µM) | 0.125 (≈ 0.242 µM) | 16 (≈ 30.9 µM) | 16 (≈ 30.9 µM) | 4 (≈ 7.73 µM) | 32 (≈ 61.8 µM) | 16 (≈ 30.9 µM) | MIC (PAM4887 IMP-1): 1 µg/mL (≈ 1.93 µM); MIC (PAM4888 IMP-4): 0.5 µg/mL (≈ 0.966 µM); MIC (PAM4196 IMP-13): 0.5 µg/mL (≈ 0.966 µM); MIC (PAM4890 IMP-19): 0.25 µg/mL (≈ 0.483 µM); MIC (PAM4889 IMP-26): 0.125 µg/mL (≈ 0.242 µM); MIC (PAM4879 CcrA1): 0.25 µg/mL (≈ 0.483 µM)
